Data as given in PubChem BioAssay (NCI).
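These data come from cells grown in 96-well plates and exposed to compound for 48 hours at five concentrations. Definition used: TGI = concentration required for complete inhibition of growth.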

Columns and labels:
Experiment in all cases: growth of human tumour cells (NCI), 48 h
[1] = system: 786-0 renal
[2] = system: A498 renal
[3] = system: A549 NSCLC
[4] = system: ACHN renal
[5] = system: BT-549 breast
[6] = system: CAKI-1 renal
[7] = system: COLO 205 colon
[8] = system: DU-145 prostate
[9] = system: EKVX NSCLC
[10] = system: HCT-116 colon
[11] = system: HCT-15 colon
[12] = system: HL-60(TB) leukemia
[13] = system: HOP-62 NSCLC
[14] = system: HOP-92 NSCLC
[15] = system: HS 578T breast
[16] = system: HT29 colon
[17] = system: IGROV1 ovarian
[18] = system: K-562 leukemia
[19] = system: KM12 colon
[20] = system: LOX IMVI melanoma
[21] = system: M14 melanoma
[22] = system: MALME-3M melanoma
[23] = system: MCF7 breast
[24] = system: MDA-MB-231 breast
[25] = system: MDA-MB-435
[26] = system: MDA-N
[27] = system: MOLT-4 leukemia
[28] = system: NCI-H226 lung
[29] = system: NCI-H23 lung
[30] = system: NCI-H460 lung
[31] = system: NCI-H522 lung
[32] = system: NCI/ADR-RES ovarian
[33] = system: OVCAR-3 ovarian
[34] = system: OVCAR-4 ovarian
[35] = system: OVCAR-5 ovarian
[36] = system: OVCAR-8 ovarian
[37] = system: PC-3 prostate
[38] = system: RPMI-8226 leukemia
[39] = system: RXF 393 renal
[40] = system: SF-268 CNS
[41] = system: SF-295 CNS
[42] = system: SF-539 CNS
[43] = system: SK-MEL-2 melanoma
[44] = system: SK-MEL-28 melanoma
[45] = system: SK-MEL-5 melanoma
[46] = system: SK-OV-3 ovarian
[47] = system: SN12C renal
[48] = system: SNB-19 CNS
[49] = system: SNB-75 CNS
[50] = system: SR leukemia
[51] = system: SW-620 colon
[52] = system: T-47D breast
[53] = system: TK-10 renal
[54] = system: U251 CNS
[55] = system: UACC-257 melanoma
[56] = system: UACC-62 melanoma
[57] = system: UO-31 renal
[58] = system: CCRF-CEM leukemia
[59] = system: HCC-2998 colon

Measured: TGI

O=C(O)/C=C/C=C/c1ccc2c(c1)OCO2
not listed: [58] | [59]
> 100 µM: all other assays above

CC(=O)Nc1nc2ncc(C=O)nc2c(=O)[nH]1
not listed: [58] | [59]
> 100 µM: all other assays above

CCn1c2ccccc2c2nnc(NCCCO)nc21
not listed: [57] | [59]
> 100 µM: all other assays above

CN(C)C(=S)/N=C1\SC(=Nc2ccccc2)C(=Nc2ccccc2)N1c1ccc([N+](=O)[O-])cc1
not listed: [1] | [3] | [4] | [9] | [20] | [34] | [40] | [42] | [51] | [53] | [55]
> 100 µM: all other assays above

C=C(C)c1ccccc1 (tested in a mixture with another compound)
not listed: [58] | [59]
> 100 µM: all other assays above
